Measurements reported in US20260109674A1, “ALLOSTERIC MODULATION OF MUSCARINIC ACETYLCHOLINE RECEPTOR EFFICACY” (The University of Toledo, priority 2022, published 2026).
Structures can show the parent of a compound that is named as a salt. Where two headings read alike, the source gives them in different places. Marks after values point to notes of the source that are not given here.

Experiments:
[1] = target: T1, M1 muscarinic receptors expressed in CHO cells (Homo sapiens, UniProt P11229); experiment: [3H]-arachidonic acid release screen with and without ACh and modulator; format: cell-based; settings: for Modulation of ACh activity (in words): [3H]AA release
T1 construct: expressed in transfected cells; host or cells: CHO (CHO-hM1, stably transfected)
T1 sequence (P11229 1-460): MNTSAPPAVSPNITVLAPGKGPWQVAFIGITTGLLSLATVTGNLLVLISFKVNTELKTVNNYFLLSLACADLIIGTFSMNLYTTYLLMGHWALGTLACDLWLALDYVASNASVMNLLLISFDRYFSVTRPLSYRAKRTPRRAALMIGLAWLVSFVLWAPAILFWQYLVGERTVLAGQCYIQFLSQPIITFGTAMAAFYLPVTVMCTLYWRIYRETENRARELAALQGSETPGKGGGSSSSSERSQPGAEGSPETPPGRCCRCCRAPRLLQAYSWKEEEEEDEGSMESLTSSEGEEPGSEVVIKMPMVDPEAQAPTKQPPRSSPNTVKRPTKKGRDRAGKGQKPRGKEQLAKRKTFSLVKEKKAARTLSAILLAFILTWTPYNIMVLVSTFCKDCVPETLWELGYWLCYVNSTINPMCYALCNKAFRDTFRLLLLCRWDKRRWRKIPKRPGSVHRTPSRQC
Procedure: CHO cells expressing human M1 muscarinic receptors were cultured at 37° C. in a 5% CO2 atmosphere in F12 medium supplemented with 5% fetal bovine serum, 100 units/mL penicillin, and 100 μg/mL streptomycin.
(§1) Measurement of [^3H]AA release was performed. Stably transfected CHO-hM1 or CHO-hM3 cells were seeded on 24-well plates (Greiner Bio-One GmbH, Frickenhausen, Germany) at a density of 5.0×10^4 cells/well in 0.5 ml of F-12 medium. Cells were incubated until they attached (approximately 3 h), followed by the addition of [^3H]AA to a final concentration of 0.05 μCi of [^3H]AA per well. The cells were then grown for 16 to 20 h before the assay was performed. [^3H]AA release was measured in Eagle's basal medium with 20 mM HEPES and 2 mg/ml fatty acid-free bovine serum albumin (EM-BSA). Cells were rinsed twice with EM-BSA, followed by the addition of EM-BSA media containing experimental agents and incubated for 1 h at 37° C. The assay was terminated by aspiration of the media, and the amount of [^3H]AA released was determined by liquid scintillation counting (Beckman-Coulter LS6500).
For some assays, pretreatment with phenoxybenzamine (POB) was employed, as indicated, to reduce the number of available receptors per cell. Stock POB was made up at 10 mM in ethanol and stored at −20° C. Each well was pretreated with 0.5 ml of the appropriate concentration in PBS with 1 mM CaCl2 and 1 mM MgCl2 (PBS++) for 30 min at 37° C., followed by 5 washes with PBS++. After pretreatment, the normal protocol was followed as above.
(§2) Tabulated [^3H]AA release data are represented as a fraction of maximal release in the presence of 100 μM ACh or as the fraction of release elicited by the appropriate concentration of ACh alone, as indicated dose-response curves were normalized to the maximal response of ACh without allosteric ligand. Some response curves were analyzed using the empirical four-parameter equation: […]
Disintegration per minute (DPM) values for a single compound were obtained in triplicate, and each compound was evaluated on three separate 24-well plates. The mean values for each condition from each of the three 24-well plates were used for the statistical analysis. The baseline mean was subtracted from each value, then normalized to the mean response produced by 100 μM ACh (set at 1.0). Statistical analyses were completed on the normalized values via one-way repeated measures ANOVA with Tukey's post hoc test. Statistically significant differences are noted as follows: *, p<0.05; **, p<0.01; ***, p<0.001.

[2] = target: T1, M1 muscarinic receptors expressed in CHO cells; experiment: Full ACh dose-response curves of [3H]AA release fitted to the allosteric operational model; format: cell-based; settings: for Effect on ACh potency and efficacy in full ACh dose-response curves (in words): modulator 10 μM; for Intrinsic Efficacy-B, τB / Activation cooperativity, A-B, β / Binding cooperativity, A-B, α / Kb: best-fit parameter; for Intrinsic Efficacy-B, τB / Activation cooperativity, A-B, β / Binding cooperativity, A-B, α: allosteric operational model; for Intrinsic Efficacy-B, τB: Em set to 2.0; for Activation cooperativity, A-B, β / Binding cooperativity, A-B, α: with ACh; for Kb: read-out: Affinity-B, KB (converted)
Procedure: as §1, §2
where X is the log of the concentration of the ligand used, Y is the amount of response, C50 is the concentration of the ligand that produces 50% of the maximal effect, Top and Bottom are the top and bottom plateaus of the curve, respectively, and n is related to the Hill slope for the curve. In some cases, families of response curves were analyzed according to the allosteric operational model:
where EM is the maximal response; A is the concentration of ACh; B is the concentration of the allosteric ligand; τA and τB represent the intrinsic efficacies of A and B, respectively; KA and KB are the equilibrium dissociation constants of A and B, respectively; and α and β represent the cooperativities between A and B in terms of binding and activation, respectively. Curve-fitting was carried out with GraphPad Prism, version 5.0 or 6.0 (San Diego CA).

[3] = tested on: wild-type zebrafish larvae; experiment: General locomotor assay in zebrafish larvae (locomotor activity, repetitive behaviors); format: in vivo, Danio rerio; settings: for Effect on locomotor activity, angular velocity and turn angle (in words): spontaneous swimming period; for Angular Velocity / Total Distance Moved / Variance of Turn Angle: Table 3; for response vs control in vivo at 10 µM: Danio rerio, Table 5, 10 μM concentration
Procedure: Five days post fertilization (dpf) zebrafish larvae were exposed to a range of nonlethal concentrations of the compounds in a 24-well plate with appropriate controls. The movement of each larval zebrafish was monitored with the Noldus behavior recording system (Noldus Information Technology, Leesburg VA) and quantified using EthoVision® XT 15 software (Noldus Information Technology, Leesburg VA). The plate was immediately placed in the incubator for a 30-minute exposure period. After 30 minutes, the plate was transferred to the Noldus system and swimming behavior was recorded in 100% light for 30 minutes to measure spontaneous swimming behavior. The light was switched off for 10 minutes (dark period) and then switched on for 10 minutes (light period), which was then repeated for two additional cycles. In total, the larvae were exposed to three cycles of alternating 10-minute dark and light periods (100% darkness-to-100% light). […]
All data for exposure and the behavioral end points were analyzed by one-way ANOVA (factor: drug conc) followed by a Dunnett's multiple comparisons test for post hoc significance between drug concentration and control group. Statistically significant differences are noted as follows: *, p<0.05; **, p<0.01; ***, p<0.001.

[4] = tested on: wild-type zebrafish larvae; experiment: Maximum tolerated concentration (MTC) determination in zebrafish larvae; format: in vivo, Danio rerio
Procedure: Determination of maximum tolerated concentration was completed by placing 5 days post fertilization (dpf) wild-type zebrafish larvae in a 24 well plate at 6 fish per well, and one compound concentration per well. […] Death was determined by the absence of heartbeat. Additional endpoints were used to assess toxicity at non-lethal concentrations such as startle capacity (poke stimulus), abnormalities in swimming behavior (loss of dorsoventral balance), and gross morphological deformities (bent body). […] The MTC determination was used to select three doses of each compound (low, medium, high dose) to be used in behavioral assays.

[5] = 10 μM modulator, 0.1 μM ACh, Table 1
[6] = 10 μM modulator, 100 μM ACh, Table 1
[7] = after 24-hour exposure, Table 3
[8] = test concentration not given, N = 12
[9] = tested at 1 μM due to toxicity at 10 μM (footnote a)

Row | Structure (SMILES) | Ratio of response of ACh with modulator to response of ACh alone, 0.1 μM ACh [1, 5] | Ratio of response of ACh with modulator to response of ACh alone, 100 μM ACh [1, 6] | Stimulation of [3H]AA release, No ACh (fraction of stimulation above the control) ([1]; 10 μM modulator, Table 1) | Effect on ACh potency and efficacy in full ACh dose-response curves (in words) [2] | Effect on locomotor activity, angular velocity and turn angle (in words) [3] | Modulation of ACh activity (in words) ([1]; modulator 10 μM) | Maximum Tolerated Concentration [4, 7] [µM] | Intrinsic Efficacy-B, τB [2] | Activation cooperativity, A-B, β [2] | Binding cooperativity, A-B, α [2] | Kb [2] [nM] | also measured
1 | COc1cccc(CN2C(=O)C(=O)c3ccccc32)c1 [Compound 8j, 1-(3-methoxybenzyl)indoline-2,3-dione] | 1.06 ± 0.15 | 0.96 ± 0.10 | 0.02 ± 0.02 | enhances ACh potency | significantly decreased locomotor activity and increased angular velocity and absolute turn angle |  |  |  |  |  |  | 
2 | CCN(CC)CCOc1c(Br)cc(CN2C(=O)C(=O)c3ccccc32)cc1Br [Compound 8l, 1-(3,5-dibromo-4-(2-(diethylamino)ethoxy)benzyl)indoline-2,3-dione hydrochloride] | 0.19 ± 0.06 | 0.87 ± 0.06 | 0.04 ± 0.00 | decreased ACh potency with little impact on ACh efficacy |  | results only in a decrease in ACh activity | 10 |  |  |  |  | Angular Velocity [3, 8]: 184.7 ± 17.0*** % of control; Total Distance Moved [3, 8]: 33.5 ± 4.4** % of control; Variance of Turn Angle [3, 8]: 166.1 ± 12.5*** % of control
3 | CCN(CC)CCOc1ccc(CN2C(=O)C(=O)c3ccccc32)cc1 [Compound 7, 1-(4-(2-(diethylamino)ethoxy)benzyl)indoline-2,3-dione] | 0.08 ± 0.02 | 1.11 ± 0.06 | 0.02 ± 0.01 | decreased ACh potency with little impact on ACh efficacy | did not significantly alter locomotor activity, angular velocity, and turn angle | primarily decreased potency and slightly enhanced the efficacy of ACh activity | 10 | 0.0317 ± 0.0205 | 0.991 ± 0.120 | 0.180 ± 0.0855 | 631 | Intrinsic agonist activity (in words) ([1]; modulator 10 μM, without ACh): lacked intrinsic activity at the 10 μM concentration
4 | COc1c(Br)cc(CN2C(=O)C(=O)c3cc(OC(F)(F)F)ccc32)cc1Br [GK-1-48] |  |  |  |  | significant increase in angular velocity |  |  |  |  |  |  | Ratio of response of ACh with modulator to response of ACh alone, 0.1 μM ACh ([1]; 10 μM modulator, 0.1 μM ACh, Table 4, N = 4-5): 3.04 ± 0.47; Ratio of response of ACh with modulator to response of ACh alone, 100 μM ACh ([1]; 10 μM modulator, 100 μM ACh, Table 4, N = 4-5): 1.66 ± 0.07; Stimulation of [3H]AA release, No ACh (fraction of stimulation above the control) ([1]; 10 μM modulator, Table 4, N = 4-5): 0.15 ± 0.01; Maximum Tolerated Concentration ([4]; after 24-hour exposure in separate experiments, Table 5): 3 µM; response vs control in vivo at 10 µM ([3]; N = 12, read-out: Angular Velocity): 134 ± 16.5%; response vs control in vivo at 10 µM ([3]; N = 12, read-out: Total Distance Moved): 80.1 ± 11.7%; response vs control in vivo at 10 µM ([3]; N = 12, read-out: Variance of Turn Angle): 109 ± 11.9%
5 | COc1c(Br)cc(CN2C(=O)C(=O)c3ccccc32)cc1Br [Compound 8c, 1-(3,5-dibromo-4-methoxybenzyl)indoline-2,3-dione] | 2.15 ± 0.05 | 1.58 ± 0.01 | 0.23 ± 0.00 | dramatically enhanced ACh efficacy |  |  | 30 | 0.328 ± 0.0555 | 3.89 ± 0.610 | 0.980 ± 0.388 | 2950 | 
6 | CCCCc1oc2ccccc2c1C(=O)c1cc(I)c(OCC[N+](CC)(CC)CC)c(I)c1 [Compound 2, N-ethylamiodarone, reference compound] |  |  | 0.04 ± 0.02 |  |  | NAM of mAChR efficacy | 1 |  |  |  |  | Ratio of response of ACh with modulator to response of ACh alone, 0.1 μM ACh [1]: 0.17 ± 0.04; Ratio of response of ACh with modulator to response of ACh alone, 100 μM ACh [1]: 0.50 ± 0.03; Angular Velocity [3, 9]: 128.9 ± 18.5 % of control; Total Distance Moved [3, 9]: 95.8 ± 11.0 % of control; Variance of Turn Angle [3, 9]: 97.6 ± 10.3 % of control
